Reference: patent publication US20260276624A1, “PROPHYLACTIC OR THERAPEUTIC AGAINST EXACERBATION OR RECURRENCE OF CANCER, AND SCREENING METHOD THEREFOR” (KEIO UNIVERSITY, priority 2022, published 2026)

Tests used:
[1] = tested on: COL17A1 KO human colorectal cancer organoids; test: YAP signaling inhibitor on COL17A1 KO organoids, proportion of LGR5-positive p27-positive cells; type: cell-based; conditions: 20 μM, 2 days
Protocol: A YAP signaling inhibitor was allowed to act on COL17A1 KO organoids to study an effect on dormancy of cancer stem cells. As a YAP signaling inhibitor, MYF-01-37 (CAS No. 2416417-65-5), a low-molecular-weight TEAD inhibitor (TEADi) that disrupts YAP/TAZ-TEAD protein-protein interactions, was used (20 μM, 2 days). […] The scale bar is 100 μm. The right side of FIG. 11 is a graph showing results of measuring the proportion of LGR5-positive p27-positive cells based on the photographs on the left side of FIG. 11.

[2] = tested on: Human colorectal cancer organoids (CCO32 strain); test: Experimental Example 14: organoid xenograft, TEAD inhibitor after irinotecan; type: in vivo, NOG mice
Protocol: The upper row in FIG. 18 is a schematic view showing a schedule of this experiment. Human colorectal cancer organoids (CCO32 strain) were xenotransplanted into the subcutis of immunodeficient NOG mice. Thereafter, irinotecan was administered once a week for three times, followed by administering a TEAD inhibitor over a long period of time to inhibit YAP signaling. Thereafter, administration of the TEAD inhibitor was discontinued. As a TEAD inhibitor, MYF-01-37 (CAS No. 2416417-65-5) was used.
The lower row in FIG. 18 is a group showing change in tumor size in mice of each group over time. In the lower row in FIG. 18, “Vehicle” indicates a result of a group into which only a solvent was administered, “TEADi” indicates a result of a group into which only a TEAD inhibitor was administered, “IRI” indicates a result of a group into which only irinotecan was administered, and “IRI+TEADi” indicates a result of a group into which irinotecan and a TEAD inhibitor were administered.

[3] = tested on: human colorectal cancer organoids xenotransplanted in mice; test: In vivo imaging of survival of LGR5-positive cells after irinotecan
Protocol: Whether or not the LGR5-positive p27-positive cells resistant to the chemotherapeutic agent contribute to relapse or recurrence of tumors after chemotherapy was studied in vivo. Specifically, irinotecan was administered to mice xenotransplanted with human colorectal cancer organoids, followed by in vivo imaging and genetic lineage-tracing of the LGR5-positive p27-positive cells and the LGR5-positive p27-negative cells over time.
FIG. 5 is a graph showing results obtained by measuring the survival rate of LGR5-positive p27-positive cells and LGR5-positive p27-negative cells after administration of irinotecan.

[4] = tested on: COL17A1 KO human colorectal cancer organoids xenotransplanted in mice; test: Tumor size after irinotecan in COL17A1 KO xenografts; type: in vivo; conditions: COL17A1 KO vs COL17A1 WT xenografts
Protocol: Subsequently, irinotecan was administered to mice xenotransplanted with COL17A1 KO human colorectal cancer organoids, and the tumor size was measured over time. The upper row in FIG. 8 is a schematic view showing a schedule of this experiment. The lower row in FIG. 8 is a graph showing change in tumor size over time. […] In addition, indicates a significant difference at p<0.05.

[5] = tested on: Doxycycline-inducible YAP/TAZ-knockdown human colorectal cancer organoids; test: Experimental Example 12: doxycycline-inducible YAP/TAZ-knockdown organoid xenograft, irinotecan; type: in vivo, NOG mice; conditions: irinotecan only
Protocol: The upper row in FIG. 15 is a schematic view showing a schedule of this experiment. Doxycycline-inducible YAP/TAZ-knockdown human colorectal cancer organoids were produced and xenotransplanted into the subcutis of immunodeficient NOG mice. Thereafter, irinotecan was administered. […] The scale bar is 100 μm. In the lower row in FIG. 15, “Control” indicates a result of a group into which neither irinotecan nor doxycycline has been administered, “Dox” indicates a result of a group into which only doxycycline was administered, “Irinotecan” indicates a result of a group into which only irinotecan was administered, and “Irinotecan +Dox” indicates a result of a group into which irinotecan and doxycycline were administered. FIG. 16 is a group showing change in tumor size in mice of each group over time. As a result, in FIG. 16, “Control,” “Dox,” “Irinotecan,” and “Irinotecan +Dox” show the same meaning as in the lower row in FIG. 15. In addition, “*” indicates a significant difference at p<0.05.

[6] = tested on: Doxycycline-inducible YAP/TAZ-knockdown human colorectal cancer organoids; test: Experimental Example 13: YAP/TAZ-knockdown organoid xenograft, doxycycline after irinotecan; type: in vivo, NOG mice; conditions: irinotecan once a week for three times, no doxycycline
Protocol: How the inhibition of YAP signaling affects tumor regrowth after chemotherapy was studied. The upper row in FIG. 17 is a schematic view showing a schedule of this experiment. Doxycycline-inducible YAP/TAZ-knockdown human colorectal cancer organoids were produced and xenotransplanted into the subcutis of immunodeficient NOG mice. Thereafter, irinotecan was administered once a week for three times, followed by administering doxycycline over a long period of time to inhibit YAP signaling. Thereafter, administration of doxycycline was discontinued. The lower row in FIG. 17 is a group showing change in tumor size in mice of each group over time. In the lower row in FIG. 17, “Irinotecan” indicates a result of the group into which only irinotecan was administered, and “Irinotecan +Dox” indicates a result of the group into which irinotecan and doxycycline were administered.

[7] = tested on: human colorectal cancer organoids; test: Colony formation of sorted cells after camptothecin treatment of organoids; type: cell-based; conditions: 50 nM; 1,000 sorted cells cultured; day 13 after sorting
Protocol: The human colorectal cancer organoids were treated with camptothecin (CPT) which is a topoisomerase inhibitor (50 nM). Subsequently, the LGR5-positive p27-positive cells, the LGR5-positive p27-negative cells, LGR5-negative p27-positive cells, and LGR5-negative p27-negative cells were sorted and collected with a cell sorter, and 1,000 cells of each type were cultured.
The numerical values in FIG. 4 show the number of colonies (average value±standard error). The scale bar is 1 mm.

[8] = tested on: COL17A1 KO human colorectal cancer organoids; test: Chemotherapy sensitivity of COL17A1 KO organoids; type: cell-based; conditions: compared to COL17A1 WT and hetero KO organoids
Source text: The chemotherapy sensitivity of COL17A1 KO human colorectal cancer organoids was studied.

[9] = tested on: YAP signaling; test: Nuclear translocation of YAP in camptothecin-treated organoids (confocal); type: cell-based, human; conditions: CCO7 and CCO32 strains, camptothecin treatment
Source text: The scale bar is 100 μm. The right side of FIG. 10 is a graph showing results of measuring the proportion of cells containing YAP that has undergone nuclear translocation based on the photographs on the left side of FIG. 10.

[10] = tested on: COL17A1, pFAK; test: Capillary-based immunoassay for COL17A1, pFAK and total FAK in camptothecin-treated organoids; type: cell-based, human; conditions: camptothecin 50 nM; CCO7 and CCO32 strains
[11] = tested on: human colorectal cancer organoids (CCO32 strain); test: Camptothecin treatment with or without FAK inhibitor, proportion of LGR5-positive p27-positive cells; type: cell-based; conditions: co-treatment with camptothecin; FAK inhibitor 10 nM, 24 hours / 10 μm as printed; camptothecin 5 days
Protocol: The scale bar is 100 μm. As a FAK inhibitor, PF573228 (CAS No. 869288-64-2) was used (10 μm). In FIG. 13, “FAKi” indicates a FAK inhibitor. FIG. 14 is a graph showing results of measuring the proportion of the LGR5-positive p27-positive cells when the human colorectal cancer organoids are treated or not treated with camptothecin for 5 days in the presence or absence of a FAK inhibitor. In FIG. 14, “N.S.” indicates no significant difference.

[12] = irinotecan only, no TEAD inhibitor

Q: Which “p27-positive cells in COL17A1 KO organoids” value [1] does the source give for `C=CC(=O)N1CCC(C)(Nc2cccc(C(F)(F)F)c2)C1` (stereo not shown) [MYF-01-37] here?
A: The value was “led to reappearance of p27-positive cells”.

Q: And the tumor size ([2]; TEAD inhibitor after irinotecan (once a week for three times))?
A: The tumor size was “tumor size was reduced to a minimum”.

Q: And the tumor inhibition effect ([2]; TEAD inhibitor alone)?
A: The tumor inhibition effect was “did not show any tumor inhibition effect”.

Q: How did the “survival of LGR5-positive p27-negative cells after administration of irinotecan” value [3] turn out when `CCc1c2c(nc3ccc(OC(=O)N4CCC(N5CCCCC5)CC4)cc13)-c1cc3c(c(=O)n1C2)COC(=O)[C@]3(O)CC` [irinotecan] was run?
A: The value was “disappeared during an observation period”.

Q: And the “survival of LGR5-positive p27-positive cells after administration of irinotecan” value [3]?
A: Its value is “tolerated chemotherapy and remained”.

Q: And the “tumor regeneration after administration of irinotecan” value [4]?
A: The value was “more inhibited in COL17A1 KO xenografts than in COL17A1 WT xenografts”.

Q: What about the “therapeutic effect (tumor size over time)” value [5] of the same compound?
A: Its value is “transient”.

Q: What about the “nuclear translocation of YAP in graft” value ([5]; three days from administration, immunostaining) of the same compound?
A: The value was “resulted in nuclear translocation of YAP in vivo”.

Q: And the “therapeutic effect (tumor size over time)” value [6]?
A: Its value is “transient therapeutic effect”.

Q: What about the “time of cancer regrowth” value [6] of the same compound?
A: The value was ~40 days.

Q: And the “therapeutic effect (tumor size over time)” value [2, 12]?
A: Its value is “transient therapeutic effect”.

Q: What about the “time of cancer regrowth” value [2, 12] of the same compound?
A: Its value is ~40 days.

Q: Which results are given for `CC[C@@]1(O)C(=O)OCc2c1cc1n(c2=O)Cc2cc3ccccc3nc2-1` [camptothecin]?
A: colony formation of LGR5-positive p27-negative cells after camptothecin treatment [7]: showed no colony formation; colony formation of LGR5-positive p27-positive cells after camptothecin treatment [7]: showed colony formation; sensitivity of COL17A1 KO organoids to camptothecin [8]: more sensitive; YAP signaling (nuclear translocation of YAP) in LGR5-positive p27-positive cells [9]: activates YAP signaling; expression of COL17A1 [10]: expression of COL17A1 was deleted; phosphorylation of FAK [10]: phosphorylation of FAK occurred

Q: With `CS(=O)(=O)c1cccc(CNc2nc(Nc3ccc4c(c3)CCC(=O)N4)ncc2C(F)(F)F)c1` [PF573228] as the compound, how does the “cell cycle reentry of LGR5-positive p27-positive cells after camptothecin exposure” value [11] read?
A: The value was “inhibited cell cycle reentry”.
